Measurements published in patent US20080051332A1, “METHOD OF MODULATING HEMATOPOIETIC STEM CELLS AND TREATING HEMATOLOGIC DISEASES USING INTRANASAL PARATHYROID HORMONE” (Nastech Pharmaceutical Company Inc., priority 2005, published 2008).
“Also recorded” adds a separate entry of the source. Like-named read-outs stand apart in the source and are kept apart here. Ends that are not written are not given here.

How the values were obtained:
ciliary motility = settings: pyo compound without obvious ultrastructural lesions; phenazine derivative with some membrane disruption; cited from earlier work
[1] = system: normal, human-derived tracheal/bronchial epithelial cells (EpiAirway™ Tissue Model); format: in vitro ADME
Procedure: (§1) The effect of various “Generally Regarded As Safe” (GRAS) permeation enhancers was measured in a MatTek cell model. Three GRAS permeation enhancers (EDTA, ethanol, Tween 80) were evaluated individually or in combination with one another. Sorbitol was used as a tonicifier to adjust the osmolarity of formulations to 220 mOsm/kg whenever applicable. The formulation pH was adjusted to 4. The permeation enhancer combination of 45 mg/ml M-β-CD, 1 mg/ml DDPC, and 1 mg/ml EDTA at pH 4.5 served as the positive control. The formulation contains sorbitol only was used as the negative control. Each formulation is evaluated in the presence and absence of preservative. For all formulations, sodium benzoate is used as the preservative.
(§2) The cell line MatTek Corp. (Ashland, Mass.) are normal, human-derived tracheal/bronchial epithelial cells (EpiAirway™ Tissue Model). Cells are cultured for 24-48 hours before use to produce a tissue insert.
Each tissue insert is placed in an individual well containing 1 ml media. On the apical surface of the inserts, 100 μl of test formulation is applied, and the sample is shaken for 1 h at 37° C. […] Transepithelial electrical resistance (TER) is measured before and after the 1-h incubation. Following the incubation, the cell inserts are analyzed for cell viability via the mitochondrial dehydrogenase (MDH) assay. […]

[2] = system: human chondrocyte cell monolayer; test: Human chondrocyte monolayer proliferation (MTT); format: cell-based; settings: MTT at t=0 and after 4 days at 37° C./5% CO2
Excerpt: A human chondrocyte cell monolayer model was employed to examine cell proliferation in the presence of PTH in a simple formulation (FORSTEO) or a formulation containing PTH and the formulation enhancers (sample 1, above). These were compared to a positive control (media containing antibiotics, insulin, TGF-beta and IGF-1) and negative control (media devoid of any cell growth components). It was desired to understand if the presence of PTH could stimulate chondrocyte growth. To this end, the above mentioned formulations and controls were applied to the apical side of the chondrocyte monolayers, and the MTT assay (Example 3) was conducted at t=0 and then after 4 days incubation at 37° C./5% CO2.

Human chondrocytes = test: Alginate-based cartilage growth model, type II collagen production; format: cell-based
Procedure: Next, the alginate-based cell system (cartilage growth model) was used to determine whether PTH dosing could stimulate chondrocytes to produce cartilage. […] Type II collagen is a major component of the extracellular matrix of nasal cartilage and therefore was used as a molecular marker for cartilage growth in this assay.
The cell-containing alginate beads were incubated in the presence of various test solutions for 12 days at 37° C., 5% CO2. After the incubation, the alginate beads were processed using an extraction method in order to quantify the production of type II collagen.
The effect of PTH on Type II collagen production was studied. The positive control in this study was re-differentiation media and the negative control was growth media. PTH was tested in a range of 20 μg to 200 μg as FORSTEO or a formulation containing the formulation enhancers (sample 1, above).
In addition, type II collagen production was assessed in the presence of a formulation containing 5 μg of insulin-like growth factor I (IGF-I). IGF-I is known to be a potent promoter of cartilage type-II collagen expression in chondrocytes and thus is an ideal positive control for the assay.

[3] = 100 μg/day by injection, preliminary results; cited from earlier work
hematopoietic stem cells = settings: mice, Calvi et al. 2003; cited from earlier work
[4] = after feeding to rats; cited from earlier work
[5] = system: normal, human-derived tracheal/bronchial epithelial cells (EpiAirway™ Tissue Model); test: Transepithelial electrical resistance (TER) in MatTek EpiAirway tissue model; format: cell-based; settings: 100 μl formulation on apical surface, 1 h at 37° C., TER before and after
Procedure: The effect of various “Generally Regarded As Safe” (GRAS) permeation enhancers was measured in a MatTek cell model. Three GRAS permeation enhancers (EDTA, ethanol, Tween 80) were evaluated individually or in combination with one another. Sorbitol was used as a tonicifier to adjust the osmolarity of formulations to 220 mOsm/kg whenever applicable. The formulation pH was adjusted to 4. The permeation enhancer combination of 45 mg/ml M-β-CD, 1 mg/ml DDPC, and 1 mg/ml EDTA at pH 4.5 served as the positive control. The formulation contains sorbitol only was used as the negative control. Each formulation is evaluated in the presence and absence of preservative. […]
(§3) Each tissue insert is placed in an individual well containing 1 ml media. […] Transepithelial electrical resistance (TER) is measured before and after the 1-h incubation. Following the incubation, the cell inserts are analyzed for cell viability via the mitochondrial dehydrogenase (MDH) assay.
TER measurements are accomplished using the Endohm-12 Tissue Resistance Measurement Chamber connected to the EVOM Epithelial Volt-ohmmeter (World Precision Instruments, Sarasota, Fla.) with the electrode leads. […] The background resistance is measured with 1.5 ml Media in the Endohm tissue chamber and 300 μl Media in the blank insert. […] Resistance is expressed as (resistance measured−blank)×0.6 cm^2. […]

[6] = system: normal, human-derived tracheal/bronchial epithelial cells (EpiAirway™ Tissue Model); test: Cell viability, MTT assay, EpiAirway tissue inserts; format: cell-based; settings: after 1 h incubation with formulation
Procedure: as §1, §2, §3
Cell viability is assessed using the MTT assay (MTT-100, MatTek kit). […] The optical density of the samples was measured at 550 nm on a plate reader.

[7] = system: normal, human-derived tracheal/bronchial epithelial cells (EpiAirway™ Tissue Model); test: Cytotoxicity, LDH assay, EpiAirway tissue inserts; format: cell-based; settings: after 1 h incubation with formulation
Procedure: The effect of various “Generally Regarded As Safe” (GRAS) permeation enhancers was measured in a MatTek cell model. Three GRAS permeation enhancers (EDTA, ethanol, Tween 80) were evaluated individually or in combination with one another. Sorbitol was used as a tonicifier to adjust the osmolarity of formulations to 220 mOsm/kg whenever applicable. The formulation pH was adjusted to 4. The permeation enhancer combination of 45 mg/ml M-β-CD, 1 mg/ml DDPC, and 1 mg/ml EDTA at pH 4.5 served as the positive control. The formulation contains sorbitol only was used as the negative control. Each formulation is evaluated in the presence and absence of preservative. For all formulations, sodium benzoate is used as the preservative. […]
as §3
The amount of cell death is assayed by measuring the loss of lactate dehydrogenase (LDH) from the cells using a CytoTox 96 Cytoxicity Assay Kit (Promega Corp., Madison, Wis.). LDH analysis of the apical media is evaluated. […] Following incubation, 50 μl of stop solution is added to each well and the plates read on an optical density plate reader at 490 nm.

[8] = anesthetized rats, cited from earlier work

2-alkyl-4-hydroxyquinolines [pyo compound]
concentration producing ciliostasis / inhibiting ciliary motility (ciliary motility): 50 µg/mL

CC[C@H](C)[C@H](NC(=O)[C@H](CCC(=O)O)NC(=O)[C@H](CO)NC(=O)[C@@H](NC(=O)[C@@H](N)CO)C(C)C)C(=O)N[C@@H](CCC(N)=O)C(=O)N[C@@H](CC(C)C)C(=O)N[C@@H](CCSC)C(=O)N[C@@H](Cc1cnc[nH]1)C(=O)N[C@@H](CC(N)=O)C(=O)N[C@@H](CC(C)C)C(=O)NCC(=O)N[C@@H](CCCCN)C(=O)N[C@@H](Cc1cnc[nH]1)C(=O)N[C@@H](CC(C)C)C(=O)N[C@@H](CC(N)=O)C(=O)N[C@@H](CO)C(=O)N[C@@H](CCSC)C(=O)N[C@@H](CCC(=O)O)C(=O)N[C@@H](CCCN=C(N)N)C(=O)N[C@H](C(=O)N[C@@H](CCC(=O)O)C(=O)N[C@@H](Cc1c[nH]c2ccccc12)C(=O)N[C@@H](CC(C)C)C(=O)N[C@@H](CCCN=C(N)N)C(=O)N[C@@H](CCCCN)C(=O)N[C@@H](CCCCN)C(=O)N[C@@H](CC(C)C)C(=O)N[C@@H](CCC(N)=O)C(=O)N[C@@H](CC(=O)O)C(=O)N[C@H](C(=O)N[C@@H](Cc1cnc[nH]1)C(=O)N[C@@H](CC(N)=O)C(=O)N[C@@H](Cc1ccccc1)C(=O)O)C(C)C)C(C)C [Teriparatide, teriparatide]
impact of preservative on Teriparatide permeation [1]: no significant impact | chondrocyte proliferation [2]: does not promote growth of chondrocytes | type II collagen production (Human chondrocytes; 20 μg of PTH, citrate buffer or with permeation enhancers, 12 days): did not induce a substantial production of type II collagen | type II collagen production (Human chondrocytes; high concentration of PTH (200 μg) in a simple formulation, 12 days, listed as PTH): a significant increase in type II collagen was observed; also recorded: modest amounts of type II collagen production | type II collagen production (Human chondrocytes; high concentration of PTH in the presence of permeation enhancers, 12 days, listed as PTH): essentially no production of type II collagen; also recorded: did not induce any cartilage growth | success rates in bone marrow transplant patients [3]: improves success rates | number of functional HSCs and survival after bone marrow transplantation (hematopoietic stem cells): increases the number of functional HSCs and survival after bone marrow transplantation

Phaseolus vulgaris hemagglutinin
oral bioavailability [4]: more than 10%

Triton X
TER reduction [5]: significant TER reduction | cell viability (MTT assay) [6]: significant reduction of cell viability | cytotoxicity (LDH assay) [7]: significant cytotoxicity

calcitonin (CGNLSTCMLGTYTQDFNKFHTFPQTAIGVGAP; ends and bridges not checked; cysteine pairing not given here; UniProt P01258 85-116, looked up)
type II collagen production (Human chondrocytes; 20 μg or 200 μg calcitonin): no effect

human growth hormone
nasal bioavailability ([8]; with N-acetyl-L-cysteine (ACS)): 12.2% | nasal bioavailability ([8]; without N-acetyl-L-cysteine): 7.5%

insulin-like growth factor I [IGF-I]
type II collagen production (Human chondrocytes; 5 μg IGF-I, positive control): greater than 1.2 pg per culture
